Results: patent US11564392B2, “Methods of inactivation of viruses using n-methlyglucamide and its derivatives” (BAYER HEALTHCARE LLC, priority 2017, dated 2023)
“Also recorded” adds a separate entry of the source. Read-outs that look alike come from different tables or passages of the source.

Key:
[1] = 25° C.; cited from earlier work
[2] = assay type: physicochemical
Procedure: Each detergent was obtained as powder from the manufacturer and was appropriately weighed and allowed to dissolve in Milli-Q water. […] The detergents were stored in a dark container in 2-8° C. Table 2 lists the manufacturers of the detergent powders and the in-house preparation which are also detailed in the methods section. […] This occurrence has been observed by others as well and may have to do with the increasing fatty chain length that enhances the hydrophobicity thus decreasing the likelihood of solubility, especially in water (Gaber et al., Burczyk, 2007).

X-MuLV [3] = assay type: cell-based, xenotropic murine leukemia virus; conditions: for X-MuLV inactivation (FIG. 4): 0.5×, 1×, 2× of the CMC, room temperature; for X-MuLV inactivation (FIG. 4) / X-MuLV inactivation (FIG. 5): within 30 minutes; for X-MuLV inactivation (FIG. 5): 1× and 2× of the CMC
X-MuLV [4] = test: X-MuLV inactivation in rFVIII by methylglucamides with or without Tw20, TnBP or NaCl, TCID50 assay; assay type: cell-based, xenotropic murine leukemia virus
Procedure: Methylglucamides were tested with other compounds to determine potential synergistic effects on viral inactivation. […] Then, the titers of each samples or controls were assayed using a TCID50 assay previously described. For each experiment (FIGS. 15, 16 and 17), the controls consisted of rFVIII spiked with X-MuLV with no detergent, and the yielded titers within the expected range of about 6.5 log10 TCID50/ml.

BVDV = assay type: cell-based, bovine viral diarrhea virus; conditions: for BVDV inactivation: Mega 10 0.2, 0.3, 0.4% (w/v), Mega 9 1.0% (w/v), 2.0° C.
PRV = assay type: cell-based, porcine pseudorabies virus
[5] = target: T1, recombinant FVIII (rFVIII) (Homo sapiens, UniProt P00451); test: Chromogenic assay to assess human Factor VIII activity after detergent incubation; assay type: biochemical; conditions: 0.3% (w/v)
T1 construct: recombinant human factor VIII (rFVIII) (full length wildtype, Bayer in-house preparation); made in house
Procedure: A diluent control of rFVIII matrix spiked only with Milli-Q H2O was also prepared and incubated under the same conditions. Following the incubation, detergents and diluent control were diluted in 1× assay buffer along with chromogenic assay (Chromogenix COATEST SP4 FVIII Kit, Cat: 82409463) FVIII standard and controls to the appropriate levels. Thirty μL of each detergent, control, and standard were loaded onto a 96-well plate in triplicate. Chromogenic assay reagents were added according to the manufacturer's protocol and incubated at 37.0° C. and 5.0% CO2 for 8 minutes. Assay plate was measured for absorbance t 405 and 492 nm on a Molecular Devices SpectraMax M5 microplate reader. Data was analyzed using SoftMax Pro v5.
The principle of the assay involves a specific step in the blood clotting mechanism, in which Factor X is converted to Factor Xa leading to the hydrolysis of the chromogenic substrate. This reaction is dependent on the activity of Factor VIII (FVIII) and directly correlates to measurable color intensity.

X-MuLV [6] = assay type: cell-based, xenotropic murine leukemia virus
[7] = rFVIII, 2° C., 30 min, Mega 8 1.81%, Mega 9 0.84%, Mega 10 0.20%, Mega 12 0.014% (w/v)
[8] = rFVIII, Room Temperature, 30 min, Mega 8 1.81%, Mega 9 0.45%, Mega 10 0.10%, Mega 12 0.014% (w/v)
[9] = 0.20% (w/v) Mega 10 or 0.71% (w/v) Mega 9, with or without NaCl
[10] = 0.3% (w/v), 2.0° C., 30 minutes

T1 sequence (P00451 20-2351): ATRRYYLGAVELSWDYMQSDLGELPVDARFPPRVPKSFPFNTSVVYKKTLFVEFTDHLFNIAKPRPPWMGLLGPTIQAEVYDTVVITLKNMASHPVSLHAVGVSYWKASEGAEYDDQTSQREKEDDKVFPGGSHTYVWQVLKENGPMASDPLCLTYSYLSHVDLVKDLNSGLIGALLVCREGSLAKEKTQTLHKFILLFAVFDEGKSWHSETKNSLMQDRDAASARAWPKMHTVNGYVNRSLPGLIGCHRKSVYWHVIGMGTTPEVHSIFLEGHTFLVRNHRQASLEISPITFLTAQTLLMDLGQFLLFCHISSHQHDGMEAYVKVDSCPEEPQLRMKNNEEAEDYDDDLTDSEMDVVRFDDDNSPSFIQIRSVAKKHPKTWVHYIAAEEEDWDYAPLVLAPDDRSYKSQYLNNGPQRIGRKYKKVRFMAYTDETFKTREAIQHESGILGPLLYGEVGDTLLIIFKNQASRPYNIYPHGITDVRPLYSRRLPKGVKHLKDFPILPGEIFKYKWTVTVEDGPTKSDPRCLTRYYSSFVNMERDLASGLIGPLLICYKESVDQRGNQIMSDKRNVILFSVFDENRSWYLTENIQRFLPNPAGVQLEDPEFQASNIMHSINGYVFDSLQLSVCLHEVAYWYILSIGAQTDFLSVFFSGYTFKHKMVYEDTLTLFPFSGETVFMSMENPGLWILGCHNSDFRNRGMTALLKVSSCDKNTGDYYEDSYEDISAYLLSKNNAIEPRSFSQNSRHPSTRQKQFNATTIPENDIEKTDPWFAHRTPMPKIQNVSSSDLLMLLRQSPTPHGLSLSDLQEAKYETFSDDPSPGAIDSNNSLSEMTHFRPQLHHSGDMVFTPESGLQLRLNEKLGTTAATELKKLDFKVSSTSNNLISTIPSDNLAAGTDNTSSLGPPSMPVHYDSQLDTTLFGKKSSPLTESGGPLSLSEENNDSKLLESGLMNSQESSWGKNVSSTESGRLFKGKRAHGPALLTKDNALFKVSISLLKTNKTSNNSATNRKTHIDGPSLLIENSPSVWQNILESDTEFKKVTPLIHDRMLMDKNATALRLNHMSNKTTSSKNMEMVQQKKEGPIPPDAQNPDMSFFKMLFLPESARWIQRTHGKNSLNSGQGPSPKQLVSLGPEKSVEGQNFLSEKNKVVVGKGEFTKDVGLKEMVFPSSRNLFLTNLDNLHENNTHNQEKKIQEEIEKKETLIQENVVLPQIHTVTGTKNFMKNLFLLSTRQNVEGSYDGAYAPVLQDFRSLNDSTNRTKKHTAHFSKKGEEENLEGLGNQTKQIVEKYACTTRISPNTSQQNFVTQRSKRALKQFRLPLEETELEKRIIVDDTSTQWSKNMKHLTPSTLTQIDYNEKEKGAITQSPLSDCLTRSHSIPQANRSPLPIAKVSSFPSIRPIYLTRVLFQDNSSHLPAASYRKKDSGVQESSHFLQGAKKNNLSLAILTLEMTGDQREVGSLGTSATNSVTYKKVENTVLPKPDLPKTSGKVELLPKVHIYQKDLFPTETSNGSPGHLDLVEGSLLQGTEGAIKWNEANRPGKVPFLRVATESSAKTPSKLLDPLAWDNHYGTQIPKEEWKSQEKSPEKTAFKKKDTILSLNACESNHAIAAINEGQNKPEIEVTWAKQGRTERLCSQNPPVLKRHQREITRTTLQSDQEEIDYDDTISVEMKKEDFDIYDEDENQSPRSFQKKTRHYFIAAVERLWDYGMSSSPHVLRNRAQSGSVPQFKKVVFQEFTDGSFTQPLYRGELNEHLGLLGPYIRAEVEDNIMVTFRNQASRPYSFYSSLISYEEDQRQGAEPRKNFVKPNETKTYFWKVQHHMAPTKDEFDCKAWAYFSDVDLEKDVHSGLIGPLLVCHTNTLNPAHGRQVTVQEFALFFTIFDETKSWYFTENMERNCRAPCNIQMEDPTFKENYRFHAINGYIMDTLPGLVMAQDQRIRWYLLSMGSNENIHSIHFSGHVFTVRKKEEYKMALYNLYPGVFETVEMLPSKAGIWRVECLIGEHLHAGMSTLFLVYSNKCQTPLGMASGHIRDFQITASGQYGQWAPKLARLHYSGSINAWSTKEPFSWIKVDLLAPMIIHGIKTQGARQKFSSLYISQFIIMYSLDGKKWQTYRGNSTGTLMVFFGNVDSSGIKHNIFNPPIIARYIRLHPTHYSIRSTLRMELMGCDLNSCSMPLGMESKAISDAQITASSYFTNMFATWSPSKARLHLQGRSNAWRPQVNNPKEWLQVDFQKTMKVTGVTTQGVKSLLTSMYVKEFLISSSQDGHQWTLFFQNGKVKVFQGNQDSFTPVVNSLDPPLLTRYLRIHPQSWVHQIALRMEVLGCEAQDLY
T1 sequence (P00451 1668-2351 limits assumed): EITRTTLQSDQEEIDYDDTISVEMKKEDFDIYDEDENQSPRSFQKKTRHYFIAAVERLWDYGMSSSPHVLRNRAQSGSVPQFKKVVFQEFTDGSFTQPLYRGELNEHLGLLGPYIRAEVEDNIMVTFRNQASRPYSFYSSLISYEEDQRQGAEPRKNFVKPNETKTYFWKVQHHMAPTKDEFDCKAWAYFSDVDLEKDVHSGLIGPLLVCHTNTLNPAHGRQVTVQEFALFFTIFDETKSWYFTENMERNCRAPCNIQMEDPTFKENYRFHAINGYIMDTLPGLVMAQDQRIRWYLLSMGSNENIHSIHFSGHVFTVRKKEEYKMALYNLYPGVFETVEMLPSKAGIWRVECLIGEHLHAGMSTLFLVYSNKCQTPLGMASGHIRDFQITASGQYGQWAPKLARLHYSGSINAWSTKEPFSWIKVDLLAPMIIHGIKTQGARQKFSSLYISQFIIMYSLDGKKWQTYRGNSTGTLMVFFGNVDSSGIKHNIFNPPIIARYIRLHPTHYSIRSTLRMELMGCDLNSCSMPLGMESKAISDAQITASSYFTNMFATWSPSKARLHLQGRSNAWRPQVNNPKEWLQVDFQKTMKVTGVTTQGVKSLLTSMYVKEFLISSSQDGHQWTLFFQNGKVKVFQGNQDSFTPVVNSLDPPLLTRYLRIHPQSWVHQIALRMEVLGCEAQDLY

Molecule | CMC [1] [mM] | solubilization of 5% (w/v) detergent in water [2] | X-MuLV inactivation (FIG. 4) (X-MuLV [3]) | X-MuLV inactivation (X-MuLV [3]; 0.5×CMC, 2° C., 30 minutes) | X-MuLV inactivation (X-MuLV [3]; 0.5×CMC, 25° C., 30 minutes) | X-MuLV inactivation (FIG. 5) (X-MuLV [3]; 2.0° C.) | Infection observed (X-MuLV [3]; [7]) | Log Reduction Factor (LRF) (X-MuLV [3]; [7]) | Infection observed (X-MuLV [3]; [8]) | Log Reduction Factor (LRF) (X-MuLV [3]; [8]) | X-MuLV inactivation (X-MuLV [4]; [9]) | BVDV inactivation (BVDV; 30 minutes) | X-MuLV inactivation (X-MuLV [3]; [10]) | further results
CCCCCCCC(=O)N(C)C[C@H](O)[C@@H](O)[C@H](O)[C@H](O)CO [Mega 8, octanoyl-N-methylglucamide] | 58 | readily solubilized in water at room temperature | completely inactivated | No significant inactivation | No significant inactivation | completely inactivated | No | ≥4.37 | No | ≥4.32 |  |  |  | 
CCCCCCCCC(=O)N(C)C[C@H](O)[C@@H](O)[C@H](O)[C@H](O)CO [Mega 9, nonaoyl-N-methylglucamide] | 19 to 25 | readily solubilized in water at room temperature | completely inactivated | partially | completely | completely inactivated | No | ≥4.37 | No | ≥4.32 | significantly inactivated | completely inactivated |  | time to inactivate BVDV to the LOD (BVDV; 1.0% (w/v)): ≤ 30 min; BVDV titer (detection limit) (BVDV; 1.0% (w/v), 2.0±1.0° C., 30 minutes): ≤ 2.03 Log10 TCID50/mL
CCCCCCCCCC(=O)N(C)C[C@H](O)[C@@H](O)[C@H](O)[C@H](O)CO [Mega 10, decanoyl-N-methylglucamide] | 6 to 7 | solubilize within 15 minutes | completely inactivated | partially | completely | completely inactivated | No | ≥4.37 | No | ≥4.32 | significantly inactivated | completely inactivated | complete X-MuLV inactivation; also recorded: inactivated X-MuLV completely | PRV titer (limit of detection) (PRV; 0.2 and 0.3%, 2.0±1.0° C., 15 minutes): ≤ 2.03 Log10 TCID50/mL; time to inactivate PRV to the limit of detection (PRV; 0.2 or 0.3 (w/v), 2.0° C.): ≤ 15 min; X-MuLV inactivation (X-MuLV [4]; 0.30% (w/v) M10 alone, +0.06% (w/v) Tw20, or +0.30% (w/v) TnBP, within 30 min): completely inactivated; effect on rFVIII activity ([5]; 2.0° C., 2 hour incubation): maintains its activity; also recorded: no effect on the activity of the protein drug; average activity of rFVIII ([5]; 2.0±1.0° C., 2 hours): 52.26 IU/mL; speed of BVDV inactivation (BVDV; 0.2%): immediately after mixing; X-MuLV titer (limit of detection) (X-MuLV [6]): ≤ 2.03 Log10 TCID50/mL; X-MuLV inactivation (X-MuLV [6]; 0.2, 0.3, 0.4% (w/v) in human IgG and human plasma protein solutions, 2.0° C., 30 minutes): completely inactivated; Infection Observed (X-MuLV [3]): No; Infection observed (X-MuLV [3]): No; LRF (X-MuLV [3]): ≥ 24.45; X-MuLV inactivation kinetics (X-MuLV [3]): immediate decrease (complete inactivation); also recorded: immediately inactivated; X-MuLV titer after treatment (limit of detection) (X-MuLV [3]): ≤ 2.03 TCID50/mL; lowest concentration to quickly and completely inactivate X-MuLV (X-MuLV [3]): approximately 0.23%; time to reach limit of detection (LOD) (X-MuLV [3]): ≤ 5 min; virus titer (X-MuLV [3]): about 2.62 Log10 TCID50/mL; virus titer (complete inactivation) (X-MuLV [3]): ≤ 2.03 Log10 TCID50/mL
CCCCCCCCCCCC(=O)N(C)CC(O)C(O)C(O)C(O)CO (stereo not shown) [Mega 12, dodecanoyl-N-methylglucamide] | 0.35 | not able to dissolve water in a 37 °C water bath | completely inactivated | No significant inactivation | No significant inactivation | completely inactivated | No | ≥4.37 | No | ≥4.32 |  |  |  | solubilization of 0.15% stock in water [2]: able to come into solution when placed in a 60 °C water bath within 15 minutes
P-tert-Octylphenoxy) polyethoxyethanol [Triton X-100, reference compound] |  |  |  |  |  |  |  |  |  |  |  |  | complete X-MuLV inactivation; also recorded: inactivated X-MuLV completely | X-MuLV titer after treatment (limit of detection) (X-MuLV [3]; [10]): ≤ 2.54 TCID50/mL
